# Source: publication PMC9727733, “Liposomal Binuclear Ir(III)–Cu(II) Coordination Compounds with Phosphino-Fluoroquinolone Conjugates for Human Prostate Carcinoma Treatment” (Inorganic Chemistry, 2022)
# Assays:
# Assay type in all cases: cell-based
# [1] = test system: A549 cell line (human lung adenocarcinoma); experiment: MTT cytotoxicity assay, A549 cells; details: for IC50: MTT
# Experimental: (§1) The cytotoxicity of the four novel heteronuclear Ir^III–Cu^II complexes was assessed against four selected cancer cell lines: A549, MCF7, DU145, WM2664, and one normal HEK293T cell line in vitro (Table 3). IC50 values (concentration of a drug required to inhibit the growth of 50% of the cells) were assessed in two different approaches, i.e., after 24 or 24 + 48 h, using the 3-(4,5-dimethylthiazole)-2,5-diphenyltetrazolium bromide (MTT) method. Cancerous and noncancerous diseases have also been treated with the well-known drug cisplatin in the same concentration range as investigated complexes and are considered as a control. IC50 values have been determined from the plots of cell viability at various concentrations of each compound by matching appropriate dose–response curves and are presented in Table 3. […]
# (§2) MCF7 cell line (human breast adenocarcinoma, morphology: epithelial-like, ATCC: HTB-22), A549 cell line (human lung adenocarcinoma, morphology: epithelial, ATCC: CCL-185) and HaCaT (human keratinocyte) were cultured in Dulbecco’s Modified Eagle’s Medium (DMEM, Corning) with phenol red, supplemented with 10% fetal bovine serum (FBS) and with 1% streptomycin/penicillin. WM266-4 cell line […]
# (§3) (human skin (metastasis), morphology: epithelial, ATCC CRL-1676) were cultured in EMEM (EBSS) + 2mM Glutamine + 1% Non-Essential Amino Acids (NEAA) + 1% Sodium Pyruvate (NaP) + 10% Foetal Bovine Serum (FBS). DU-145 cell line (human prostate carcinoma) and HEK293T cell line (human embryonic kidney) were cultured in minimum essential medium (MEM, Corning) with only 10% fetal bovine serum (FBS). Cultures were incubated at 37 °C under a humidified atmosphere containing 5% CO2.
# (§4) Cells were passaged using a solution containing 0.05% trypsin and 0.5 mM EDTA. All media and other ingredients were purchased from ALAB, Poland.
# (§5) Since most of the studied compounds are insoluble in aqueous media, therefore they needed to be pre-dissolved in DMSO for biological tests. Cytotoxicity was assessed by MTT assay performed according to the protocols described previously. (70) In brief, 1 × 10^4 cells per well, seeded in 96-well flat-bottom microtiter plate, were incubated with the tested complexes (1, 2, 3 and 4) at various concentrations for 24 h.
# (§6) After that time, solutions of compounds were washed out, cells were washed thee time with PBS and fresh medium was applied. Each compound concentration was tested in five replicates and repeated at least three times. Determined values of IC50 (concentration of a drug required to inhibit the growth of 50% of the cells) are given as mean + S.D. (Standard Deviation). Furthermore, post-treatment survival assessment of the treated cells was analyzed under a fluorescence inverted microscope (Olympus IC51, Japan) with an excitation filter 470/20 nm. For this, cells were stained with two versatile fluorescence dyes: fluorescein […]
# (§7) diacetate (FDA, 5 mg/mL) and propidium iodide (PI, 5 mg/mL) in standard conditions in the dark for 20 min. Before visualization dyes were removed and cells were washed with PBS twice. IC50 values were determined, after 72 h, from the plots of cell viability in the presence of various concentrations of each compound by matching dose–response curves. […]
# (4) In brief, before imaging, A549 and Du145 cells were seeded on microscopic slides at a […]
# [2] = test system: MCF7 cell line (human breast adenocarcinoma); experiment: MTT cytotoxicity assay, MCF7 cells
# Experimental: as §1, §2, §3, §4, §5, §6, §7
# [3] = test system: DU-145 cell line (human prostate carcinoma); experiment: MTT cytotoxicity assay, DU145 cells
# Experimental: as §1
# Bovine Serum (FBS). DU-145 cell line (human prostate carcinoma) and HEK293T cell line (human embryonic kidney) were cultured in minimum essential medium (MEM, Corning) with only 10% fetal bovine serum (FBS). Cultures were incubated at 37 °C under a humidified atmosphere containing 5% CO2.
# as §4, §5, §6, §7
# [4] = test system: WM2664 cells (WM266-4, human skin metastasis); experiment: MTT cytotoxicity assay, WM2664 cells
# Experimental: as §1, §2, §3, §4, §5, §6, §7
# [5] = test system: HEK293T cell line (human embryonic kidney); experiment: MTT cytotoxicity assay, HEK293T normal cells
# Experimental: The cytotoxicity of the four novel heteronuclear Ir^III–Cu^II complexes was assessed against four selected cancer cell lines: A549, MCF7, DU145, WM2664, and one normal HEK293T cell line in vitro (Table 3). IC50 values (concentration of a drug required to inhibit the growth of 50% of the cells) were assessed in two different approaches, i.e., after 24 or 24 + 48 h, using the 3-(4,5-dimethylthiazole)-2,5-diphenyltetrazolium bromide (MTT) method. Cancerous and noncancerous diseases have also been treated with the well-known drug cisplatin in the same concentration range as investigated complexes and are considered as a control. IC50 values have been determined from the plots of cell viability at various concentrations of each compound by matching appropriate dose–response curves and are presented in Table 3.
# as §3, §4, §5, §6, §7
# [6] = A549, 72 h (24 + 48 h recovery)
# [7] = MCF7, 72 h (24 + 48 h recovery)
# [8] = DU145, 72 h (24 + 48 h recovery)
# [9] = WM2664, 72 h (24 + 48 h recovery)
molecule,measurement,setting,value
"N.N.[Cl][Pt][Cl] [cisplatin (CDDP), cisplatin, reference compound]",IC50,"[1]; A549, 24 h treatment",0.057 ± 1.3e-06 µM
same,IC50,[1]; [6],71.7 ± 3.7 µM
same,IC50,"[2]; MCF7, 24 h treatment",51.9 ± 4.6 µM
same,IC50,[2]; [7],17.7 ± 8.6 µM
same,IC50,"[3]; DU145, 24 h treatment",0.0683 ± 1.3e-06 µM
same,IC50,[3]; [8],65.5 ± 3.6 µM
same,IC50,"[4]; WM2664, 24 h treatment",2.6 ± 0.6 µM
same,IC50,[4]; [9],8.3 ± 0.4 µM
same,IC50,[5]; 24 h treatment,21 ± 1.8 µM
same,IC50,[5]; 72 h (24 + 48 h recovery),10.3 ± 2.1 µM
[Ir(η^5-Cp*)Cl2Psfx-Cu(phen)] [IrPsfxCu (4)],IC50,"[1]; A549, 24 h treatment",0.0181 ± 1.3e-06 µM
same,IC50,[1]; [6],0.6 ± 0.00029 µM
same,times more effective than the reference drug cisplatin,"[1]; A549, IC50 comparison",more than 100
same,selectivity index (SI – IC50 (normal cell line)/IC50 (cancer cell line)),[1]; A549 cell line,approximately 1290
same,IC50,"[2]; MCF7, 24 h treatment",10.5 ± 0.8 µM
same,IC50,[2]; [7],> 1000 µM
same,IC50,"[3]; DU145, 24 h treatment",0.0101 ± 2.9e-06 µM
same,IC50,[3]; [8],53.6 ± 0.4 µM
same,IC50,"[4]; WM2664, 24 h treatment",0.0062 ± 2.4e-06 µM
same,IC50,[4]; [9],212 ± 10.5 µM
same,IC50,[5]; 24 h treatment,677 ± 9.2 µM
same,IC50,[5]; 72 h (24 + 48 h recovery),777 ± 15.3 µM
"O=[N+]([O-])[O-].O=[N+]([O-])[O-].[Cu+2].c1cnc2c(c1)ccc1cccnc12 [Cu(phen)(NO3)2, reference compound]",IC50,"[1]; A549, 24 h treatment",537 ± 13.2 µM
same,IC50,[1]; [6],721 ± 15.1 µM
same,IC50,"[2]; MCF7, 24 h treatment",318 ± 12.2 µM
same,IC50,[2]; [7],426 ± 9.9 µM
same,IC50,"[3]; DU145, 24 h treatment",412 ± 10.9 µM
same,IC50,[3]; [8],659 ± 14.5 µM
same,IC50,"[4]; WM2664, 24 h treatment",933 ± 13.6 µM
same,IC50,[4]; [9],1110 ± 18.5 µM
same,IC50,[5]; 24 h treatment,81.8 ± 8.2 µM
same,IC50,[5]; 72 h (24 + 48 h recovery),42.4 ± 9.1 µM
[Ir(η^5-Cp*)Cl2Pcfx-Cu(phen)](NO3)·1.75(CH3OH)·0.75(H2O) [IrPcfxCu (1)],IC50,"[1]; A549, 24 h treatment",0.0355 ± 5.6e-06 µM
same,IC50,[1]; [6],0.000424 µM
same,IC50,"[2]; MCF7, 24 h treatment",35.3 ± 6.5 µM
same,IC50,[2]; [7],> 1000 µM
same,IC50,"[3]; DU145, 24 h treatment",1.28e-06 µM
same,IC50,[3]; [8],126 ± 3.4 µM
same,IC50,"[4]; WM2664, 24 h treatment",0.0052 ± 4.1e-06 µM
same,IC50,[4]; [9],137 ± 2.2 µM
same,IC50,[5]; 24 h treatment,787 ± 11.2 µM
same,IC50,[5]; 72 h (24 + 48 h recovery),887 ± 12.7 µM
[Ir(η^5-Cp*)Cl2Plfx-Cu(phen)](NO3)·1.3(H2O)·1.95(CH3OH) [IrPlfxCu (3)],IC50,"[1]; A549, 24 h treatment",0.0316 ± 7.6e-06 µM
same,IC50,[1]; [6],0.36 ± 0.00022 µM
same,IC50,"[2]; MCF7, 24 h treatment",24.2 ± 7.2 µM
same,IC50,[2]; [7],> 1000 µM
same,IC50,"[3]; DU145, 24 h treatment",0.0142 ± 2.4e-06 µM
same,IC50,[3]; [8],126 ± 4.4 µM
same,IC50,"[4]; WM2664, 24 h treatment",0.0101 ± 2.2e-06 µM
same,IC50,[4]; [9],229 ± 25.9 µM
same,IC50,[5]; 24 h treatment,776 ± 15.7 µM
same,IC50,[5]; 72 h (24 + 48 h recovery),823 ± 12.3 µM
[Ir(η^5-Cp*)Cl2Pnfx-Cu(phen)](NO3)·1.75(CH3OH)·0.75(H2O) [IrPnfxCu (2)],IC50,"[1]; A549, 24 h treatment",0.0112 ± 7.8e-06 µM
same,IC50,[1]; [6],0.0366 ± 2.8e-06 µM
same,IC50,"[2]; MCF7, 24 h treatment",30 ± 0.7 µM
same,IC50,[2]; [7],> 1000 µM
same,IC50,"[3]; DU145, 24 h treatment",0.00108 ± 1.9e-08 µM
same,IC50,[3]; [8],123 ± 5.4 µM
same,IC50,"[4]; WM2664, 24 h treatment",0.0099 ± 3.8e-06 µM
same,IC50,[4]; [9],155 ± 3.2 µM
same,IC50,[5]; 24 h treatment,756.8 ± 5.7 µM
same,IC50,[5]; 72 h (24 + 48 h recovery),857 ± 15.9 µM
